Consider 34 molecules from PubChem BioAssay (NCI).

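Results reflect a 48-hour exposure of cells in 96-well plates to compound at five concentrations. GI50 marks 50% less growth. Definition used: TGI = concentration required for complete inhibition of growth.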

In this assay the test system is MDA-MB-468 breast. Description: NCI tumour cell line growth inhibition, 48 h.
For the molecule `CC1=CSC2=NC(c3ccc(Cl)c(Cl)c3)=CC(c3ccc(Cl)cc3)N12` (stereo not drawn), the GI50 was more than 100000 nM and the TGI was more than 100000 nM.
For the molecule `CC[N+](CCCCCCCCCC[N+](CC)(c1ccccn1)c1ccccn1)(c1ccccn1)c1ccccn1`, the GI50 is 206 nM and the TGI came to 1430 nM.
`COc1cc2nc(-c3ccc(C(F)(F)F)cc3)cc(OCCCN3CCOCC3)c2cc1OC`: the GI50 was 1240 nM and the TGI was 5710 nM.
With `CCOC(=O)[C@@H](C)C[C@H](Cc1ccccc1)NC(=O)c1csc([C@@H](C[C@H](C(C)C)N(C)C(=O)[C@@H](NC(=O)[C@H]2C[C@H](O[Si](C)(C)C(C)(C)C)CCN2C)C(C)C)OC(C)=O)n1`, the GI50 is 75.4 nM and the TGI was 5450 nM.
Take `C=CCn1c(C)nc2cc(Nc3nc(Nc4ccc5nc(C)n(CC=C)c5c4)c4ccccc4n3)ccc21`: the GI50 is 203 nM and the TGI is 521 nM.
The like results for `COc1ccc(/C=C/c2cc(OC)c(OC)c(OC)c2)cc1NC(=O)/C=C/c1ccc(F)cc1` were, in that order, 1780 nM and more than 37500 nM.
The like results for `CC1=CC[C@@H]2CC[C@]3(C)[C@H](CC[C@@H]4[C@@]5(C)CCCNC(C)(C)[C@@H]5CC[C@]43C)[C@H]2[C@@H]1C` were, in that order, 1680 nM and 3300 nM.
As to `COc1ccc2c(c1)sc1nc(-c3ccccc3)c(-c3ccsc3)n12`, the GI50 is 1980 nM and the TGI was determined as 5430 nM.
For `CCCCNc1nc(NC(C)(C)C)nc(NC(C)(C)C)n1`, in that order: 1490 nM and 34800 nM.
With `O=C(Nc1ccc(Cl)cc1)Nc1ccc(Cl)c(Cl)c1`, the GI50 was 2610 nM and the TGI worked out at 11300 nM.
For `C=CC(=O)N1CCCC(n2nc(-c3ccc(Oc4ccccc4)cc3)c3c(N)ncnc32)C1` (stereo not drawn), the GI50 was 31.9 nM and the TGI came to 600 nM.
For `Clc1nc(Oc2ccccc2)nc(-c2cn(-c3ccccc3)c3ccccc23)n1`, in that order: 2860 nM and 9940 nM.
The like results for `CC(C)c1ccc(Cc2cnc(NC(=O)c3cc(Br)cs3)s2)cc1` were, in that order, 1300 nM and 8670 nM.
The like results for `COc1c/c(=C2/C=c3ccccc3=N2)[nH]/c1=C/c1[nH]c(C)cc1C` were, in that order, 311 nM and 1940 nM.
For the molecule `C#C[C@]1(O)CC[C@H]2[C@@H]3CC=C4c5sc(Nc6cc(Cl)ccn6)nc5CC[C@]4(C)[C@H]3CC[C@@]21C`, the GI50 was 2190 nM and the TGI was 6610 nM.
For `N#CCc1nc(C#N)c(N)o1`, in that order: more than 100000 nM and more than 100000 nM.
As for `Cc1ccc(C(=O)c2oc3ccc4c(C)cc(=O)oc4c3c2C)cc1`, the GI50 is 12100 nM and the TGI was more than 100000 nM.
The like results for `Cc1cc(/C=C2\SC(=Nc3ccccc3)N(C3CCCC3)C2=O)c(C)n1-c1ccc(Cl)cc1` were, in that order, 48000 nM and more than 100000 nM.
For `CC[N+](CC)=c1ccc2nc3c(cc(N)c4ccccc43)oc-2c1`, in that order: 21.9 nM and 132 nM.
The like results for `COc1cc(OC)c(/C=C/c2ccc3ccccc3[n+]2C)c(OC)c1` were, in that order, 161 nM and 763 nM.
`O=C(CN1CCOCC1)NNc1ncnc2ccccc12`: the GI50 was 3650 nM and the TGI worked out at 15600 nM.
The like results for `COc1cc(-c2nc3ccc(C)cc3[nH]2)ccc1OCC(=O)N=Nc1c(O)[nH]c2ccccc12` were, in that order, 1750 nM and 3340 nM.
For `CCOc1ccc(/C=C/C(=O)c2ccccc2)cc1`, in that order: 17300 nM and 34100 nM.
In the case of `COc1cc(/C=C/c2cc(C(F)(F)F)[nH]c(=O)n2)ccc1OCc1ccccc1F`, the GI50 was 2970 nM and the TGI was 14400 nM.
With `CC1(C)C=CC[C@]2(C)[C@H]3CC[C@@H]4[C@H]5[C@H](C(=O)/C=C/c6cccnc6)CC[C@]5(CO)CC[C@@]4(C)[C@]3(C)CC[C@@H]12`, the GI50 is 1340 nM and the TGI turned out to be 2880 nM.
For `CN1CCN(Cc2ccc(NC(=O)c3cncc(C#Cc4cnc(N)c5ccc(F)cc45)c3)cc2C(F)(F)F)CC1`, the GI50 is 1770 nM and the TGI is 6670 nM.
The like results for `O=C(Nc1cccc(C(F)(F)F)c1)c1cc(-c2ccc(F)cc2F)ccc1O` were, in that order, 2220 nM and 6840 nM.
For `CCCCCCC/C=C/[C@H]1O[C@]23C(=O)C[C@@]4(C[C@@H](OC5OC(CO)C(O)C(O)C5O)C[C@@H]4[C@H]2C=C1C)OC3=O` (stereo partly drawn), in that order: 4580 nM and 13500 nM.
For `O=[N+]([O-])c1ccc2[nH]cc(-c3c4ccsc4cc4[nH]c5ccc([N+](=O)[O-])cc5c34)c2c1`, the GI50 was 805 nM and the TGI was 2470 nM.
Regarding `Oc1ccc(Br)cc1Sc1cc(Br)ccc1O`, the GI50 was 4090 nM and the TGI came to 20800 nM.
For `COc1cc(-c2cnn(C)c2)ccc1Nc1ncc2ccnc(N[C@@H](C)C(C)(C)C)c2n1`, in that order: more than 74700 nM and more than 100000 nM.
With `COC(=O)CCC/C=C\C[C@H]1C=CC(=O)/C1=C/C[C@@H](O)CCc1cccc(C(F)(F)F)c1`, the GI50 was 2010 nM and the TGI turned out to be 5230 nM.
The like results for `Nc1c(C(=O)c2ccccc2)sc2nc(-c3cccs3)ccc12` were, in that order, 200 nM and 910 nM.
`COc1cccc(-c2nc3sccn3c2-c2ccnc(NCCNC(=O)Nc3cccc(C(F)(F)F)c3)n2)c1`: the GI50 was 2630 nM and the TGI stood at 10400 nM.
